Laboratory results published in PubChem BioAssay AID2060504 (Molecular Pharmacology Branch, DTP, NCI, 2025).
Blank lines part the entries; values can stand above or below the compound they belong to.

Tested on: 636577-100-R-J1-PDC complex spheroid viability
Test: Anticancer human tumor 636577-100-R-J1-PDC patient-derived endometrial adenocarcinoma cell line growth inhibition [GQUAD]
Details: for IC50: curve of first compound; for viability, T/C: stronger effect = lower value
Summary of the method: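 Viability of tumor cells grown as complex spheroids with endothelial and stromal cells, exposed to drug combinations. Top concentration at or near clinical Cmax (else 10 microM), diluted in half-log increments.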

[1] = second compound 0.0316 µM, first compound 0.0316 µM
[2] = second compound 0.0316 µM, first compound 0.1 µM
[3] = second compound 0.0316 µM, first compound 0.316 µM
[4] = second compound 0.0316 µM, first compound 1 µM
[5] = second compound 0.0316 µM, first compound 3.16 µM
[6] = second compound 0.0316 µM, first compound 10 µM
[7] = second compound 0.1 µM, first compound 0.0316 µM
[8] = second compound 0.1 µM, first compound 0.1 µM
[9] = second compound 0.1 µM, first compound 0.316 µM
[10] = second compound 0.1 µM, first compound 1 µM
[11] = second compound 0.1 µM, first compound 3.16 µM
[12] = second compound 0.1 µM, first compound 10 µM
[13] = second compound 0.316 µM, first compound 0.0316 µM
[14] = second compound 0.316 µM, first compound 0.1 µM
[15] = second compound 0.316 µM, first compound 0.316 µM
[16] = second compound 0.316 µM, first compound 1 µM
[17] = second compound 0.316 µM, first compound 3.16 µM
[18] = second compound 0.316 µM, first compound 10 µM
[19] = second compound 1 µM, first compound 0.0316 µM
[20] = second compound 1 µM, first compound 0.1 µM
[21] = second compound 1 µM, first compound 0.316 µM
[22] = second compound 1 µM, first compound 1 µM
[23] = second compound 1 µM, first compound 3.16 µM
[24] = second compound 1 µM, first compound 10 µM
[25] = second compound 3.16 µM, first compound 0.0316 µM
[26] = second compound 3.16 µM, first compound 0.1 µM
[27] = second compound 3.16 µM, first compound 0.316 µM
[28] = second compound 3.16 µM, first compound 1 µM
[29] = second compound 3.16 µM, first compound 3.16 µM
[30] = second compound 3.16 µM, first compound 10 µM
[31] = second compound 10 µM, first compound 0.0316 µM
[32] = second compound 10 µM, first compound 0.1 µM
[33] = second compound 10 µM, first compound 0.316 µM
[34] = second compound 10 µM, first compound 1 µM
[35] = second compound 10 µM, first compound 3.16 µM
[36] = second compound 10 µM, first compound 10 µM
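Further: viability read after seven days of drug exposure.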
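Wherever viability, T/C is given: luminescence signal used as a proxy for viable cells; 100% = DMSO vehicle control wells.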

- IC50 (second compound 0.0316 µM): < 31.6 nM
- IC50 (second compound 0.1 µM): < 31.6 nM
- IC50 (second compound 0.316 µM): < 31.6 nM
- IC50 (second compound 1 µM): < 31.6 nM
- IC50 (second compound 3.16 µM): < 31.6 nM
- IC50 (second compound 10 µM): < 31.6 nM
SMILES: O=C(NO)c1cnc(N2CCN(S(=O)(=O)c3ccc4ccccc4c3)CC2)nc1 + Cc1cnc(CNC(=O)c2c(=O)c3ccc(N4CCCN(C)CC4)nc3n3c2sc2ccccc23)cn1
- viability, T/C [1]: 29.4%
- viability, T/C [2]: 20.2%
- viability, T/C [3]: 6.22%
- viability, T/C [4]: 5.24%
- viability, T/C [5]: 0.21%
- viability, T/C [6]: 0.09%
- viability, T/C [7]: 24.2%
- viability, T/C [8]: 17.7%
- viability, T/C [9]: 6.24%
- viability, T/C [10]: 5.27%
- viability, T/C [11]: 0.47%
- viability, T/C [12]: 0.08%
- viability, T/C [13]: 20%
- viability, T/C [14]: 15.8%
- viability, T/C [15]: 6.06%
- viability, T/C [16]: 4.96%
- viability, T/C [17]: 0.17%
- viability, T/C [18]: 0.07%
- viability, T/C [19]: 21.5%
- viability, T/C [20]: 16.8%
- viability, T/C [21]: 6.11%
- viability, T/C [22]: 6.97%
- viability, T/C [23]: 0.05%
- viability, T/C [24]: 0.07%
- viability, T/C [25]: 16.3%
- viability, T/C [26]: 17.7%
- viability, T/C [27]: 9.78%
- viability, T/C [28]: 3.81%
- viability, T/C [29]: 0.06%
- viability, T/C [30]: 0.08%
- viability, T/C [31]: 21.6%
- viability, T/C [32]: 16.5%
- viability, T/C [33]: 10.8%
- viability, T/C [34]: 0.08%
- viability, T/C [35]: 0.09%
- viability, T/C [36]: 0.11%

SMILES: C=CCn1c(=O)c2cnc(Nc3ccc(N4CCN(C)CC4)cc3)nc2n1-c1cccc(C(C)(C)O)n1 + Cc1[nH]c2ccc(F)cc2c1-c1nc2c3cccnc3c3ncccc3c2[nH]1
- IC50 (second compound 0.0316 µM): 825 nM
- IC50 (second compound 0.1 µM): 746 nM
- IC50 (second compound 0.316 µM): 580 nM
- IC50 (second compound 1 µM): 202 nM
- IC50 (second compound 3.16 µM): < 31.6 nM
- IC50 (second compound 10 µM): < 31.6 nM
- viability, T/C [1]: 113%
- viability, T/C [2]: 83.9%
- viability, T/C [3]: 94%
- viability, T/C [4]: 41%
- viability, T/C [5]: 16.9%
- viability, T/C [6]: 12.4%
- viability, T/C [7]: 103%
- viability, T/C [8]: 78%
- viability, T/C [9]: 78.4%
- viability, T/C [10]: 40.6%
- viability, T/C [11]: 19.6%
- viability, T/C [12]: 12.5%
- viability, T/C [13]: 83%
- viability, T/C [14]: 78.5%
- viability, T/C [15]: 65%
- viability, T/C [16]: 36.9%
- viability, T/C [17]: 17.4%
- viability, T/C [18]: 14%
- viability, T/C [19]: 83.9%
- viability, T/C [20]: 45.3%
- viability, T/C [21]: 58.1%
- viability, T/C [22]: 29.8%
- viability, T/C [23]: 16.1%
- viability, T/C [24]: 13.6%
- viability, T/C [25]: 25.6%
- viability, T/C [26]: 21.4%
- viability, T/C [27]: 23.6%
- viability, T/C [28]: 19.1%
- viability, T/C [29]: 17.5%
- viability, T/C [30]: 16.6%
- viability, T/C [31]: 35%
- viability, T/C [32]: 28.6%
- viability, T/C [33]: 29.3%
- viability, T/C [34]: 20.1%
- viability, T/C [35]: 20.9%
- viability, T/C [36]: 14.5%

SMILES: COc1cc(C2c3cc4c(cc3C(OC3OC5COC(C)OC5C(O)C3O)C3COC(=O)C23)OCO4)cc(OC)c1O (stereo unspecified) + CN(C)c1ccc(Nc2c3ccc(NC(=O)CCN4CCCC4)cc3nc3cc(NC(=O)CCN4CCCC4)ccc23)cc1
- IC50 (second compound 0.0316 µM): 65.1 nM
- IC50 (second compound 0.1 µM): 46.7 nM
- IC50 (second compound 0.316 µM): 46.9 nM
- IC50 (second compound 1 µM): 32.4 nM
- IC50 (second compound 3.16 µM): < 31.6 nM
- IC50 (second compound 10 µM): < 31.6 nM
- viability, T/C [1]: 77.5%
- viability, T/C [2]: 33.3%
- viability, T/C [3]: 20.7%
- viability, T/C [4]: 17.2%
- viability, T/C [5]: 15.7%
- viability, T/C [6]: 13.8%
- viability, T/C [7]: 61.4%
- viability, T/C [8]: 27.9%
- viability, T/C [9]: 18.8%
- viability, T/C [10]: 19%
- viability, T/C [11]: 18.5%
- viability, T/C [12]: 14.6%
- viability, T/C [13]: 57%
- viability, T/C [14]: 37.1%
- viability, T/C [15]: 22.3%
- viability, T/C [16]: 17.7%
- viability, T/C [17]: 15.7%
- viability, T/C [18]: 12.9%
- viability, T/C [19]: 50.4%
- viability, T/C [20]: 30.6%
- viability, T/C [21]: 18.5%
- viability, T/C [22]: 20.1%
- viability, T/C [23]: 16.2%
- viability, T/C [24]: 13.8%
- viability, T/C [25]: 27.6%
- viability, T/C [26]: 20.5%
- viability, T/C [27]: 19.6%
- viability, T/C [28]: 17.4%
- viability, T/C [29]: 16.8%
- viability, T/C [30]: 13.1%
- viability, T/C [31]: 5.34%
- viability, T/C [32]: 4.62%
- viability, T/C [33]: 4.08%
- viability, T/C [34]: 4.02%
- viability, T/C [35]: 2.93%
- viability, T/C [36]: 2.35%
